Where two headings read alike, the source gives them in different places.
Assays:
Human 2780CP cell line = assay: MTT cytotoxicity assay, cisplatin-resistant ovarian 2780CP cells, with or without BSO; format: cell-based; parameters: key to DMF vs. 2780CP Control (Without BSO) / DMF Control / DMF +BSO (MTC): DMF = IC50 without BSO / IC50 with BSO; conditions: for Resistance Factor vs. 2780CP +10 μM BSO: IC50 2780CP with 10 μM BSO / IC50 A2780 without BSO; for Resistance Factor vs. 2780CP +3 mM BSO (MTC): IC50 2780CP with 3 mM BSO (MTC) / IC50 A2780 without BSO; for Resistance Factor vs. 2780CP Control (Without BSO): IC50 2780CP without BSO / IC50 A2780 without BSO; for DMF vs. 2780CP +10 μM BSO: IC50 without BSO / IC50 with 10 μM BSO; for DMF vs. 2780CP +3 mM BSO (MTC): IC50 without BSO / IC50 with 3 mM BSO (MTC); for DMF vs. 2780CP Control (Without BSO): without BSO (reference)
Description: (§1) The ovarian A2780 and 2008 cell lines are sensitive to cisplatin, while the corresponding 2780CP and 2008/C13* cell lines were selected for resistance following in vitro exposure to cisplatin. The SKOV-3 cell line was established from a patient who was resistant to cisplatin therapy and is considered a model of cisplatin resistance. The A2780 and 2780CP cells have wild-type p53 function, while SKOV-3 is devoid of p53 function. The p53 status for the 2008 and 2008/C131 cells is presently not known.
(§2) Procedure for Cytotoxic Evaluation. All cell lines are maintained in RPMI 1640 medium supplemented with 10% fetal bovine serum, 50 μg/ml penicillin, 50 μg/ml streptomycin, 100 μg/ml neomycin and 0.3 mg/ml L-glutamine. The ovarian lines also require 2 μg/ml insulin for maximal growth. Cells are grown as monolayers at 37° C. in a humidified atmosphere of 5% CO2:95% air. Cytotoxicity is determined by a standard MTT assay. Briefly, the exponentially-growing cells are trypsinized to dislodge them before use. After diluting the tumor cells to appropriate concentrations (2,000-30,000 cells/ml), 100 μl aliquots of the cell suspensions are added to each well of a 96-well microtiter plate. The cells are allowed to attach overnight, and then exposed for 24 hr to BSO at a concentration that is equal to or less than maximally tolerated concentration (MTC). At 22 hr after addition of BSO, the platinum complex is added, and 2 hr later the cells are washed and reincubated. After another 5 days, when control cells are in an exponential phase of growth, 50 μl of an MTT solution (3 mg/ml) is added to each well. Following a 3-hr incubation, the medium is removed and replaced by 50 μl of 100% DMSO to dissolve MTT formazan crystals. Plates are agitated on a plate shaker for 5 min, and absorbances are measured at 570 nm in a multiwell scanning spectrophotometer.
(§3) IC50 values, defined as the drug concentration (μM) inhibiting cell growth by 50% compared to control wells, are determined by fitting a sigmoidal curve to the data using a computer program. Resistance factor is calculated as a ratio of the IC50 against resistant cell line to the IC50 against parent cell line. The dose modification factor (DMF) is derived from a ratio of IC50 without BSO to that with BSO.

Human A2780 cell line = assay: MTT cytotoxicity assay, cisplatin-sensitive ovarian A2780 cells, with or without BSO; format: cell-based; parameters: key to DMF vs. A2780 Control (Without BSO): DMF = IC50 without BSO / IC50 with BSO; conditions: for DMF vs. A2780 +10 μM BSO (MTC): IC50 without BSO / IC50 with 10 μM BSO (MTC); for DMF vs. A2780 Control (Without BSO): without BSO (reference)
Description: as §1, §2, §3

[1] = +10 μM BSO, read-out: IC50 (μM) vs. 2780CP +10 μM BSO
[2] = +3 mM BSO (MTC), read-out: IC50 (μM) vs. 2780CP +3 mM BSO (MTC)
[3] = without BSO, read-out: IC50 (μM) vs. 2780CP Control (Without BSO)
[4] = +10 μM BSO (MTC), 24 hr BSO, read-out: IC50 (μM) vs. A2780 +10 μM BSO (MTC)
[5] = without BSO, 2 hr platinum exposure, MTT after 5 days, read-out: IC50 (μM) vs. A2780 Control (Without BSO)

Structure (SMILES)	IC50 (Human 2780CP cell line; [1]) [µM]	IC50 (Human 2780CP cell line; [2]) [µM]	Resistance Factor vs. 2780CP +10 μM BSO (Human 2780CP cell line)	Resistance Factor vs. 2780CP +3 mM BSO (MTC) (Human 2780CP cell line)	Resistance Factor vs. 2780CP Control (Without BSO) (Human 2780CP cell line)	DMF vs. 2780CP +10 μM BSO (Human 2780CP cell line)	DMF vs. 2780CP +3 mM BSO (MTC) (Human 2780CP cell line)	DMF vs. 2780CP Control (Without BSO) (Human 2780CP cell line)	IC50 (Human 2780CP cell line; [3]) [µM]	IC50 (Human A2780 cell line; [4]) [µM]	DMF vs. A2780 +10 μM BSO (MTC) (Human A2780 cell line)	DMF vs. A2780 Control (Without BSO) (Human A2780 cell line)	IC50 (Human A2780 cell line; [5]) [µM]
[NH2][Pt]([Cl])([Cl])[NH]C1CC1 [Complex 3]	62.2	48.8	17.1	13.4	17.5	1.02	1.31	1.00	63.7	3.46	1.05	1.00	3.64
[NH2][Pt]([Cl])([Cl])[NH]C1CCCCC1 [Complex 6]	6.98	4.19	11.1	6.65	12.0	1.08	1.80	1.00	7.55	0.5	1.26	1.00	0.63
N[C@@H]1CCCC[C@H]1N.[OH][Pt+2]([OH])([Cl])[Cl] [Complex 14]	15.5	9.54	12.4	7.63	12.6	1.02	1.66	1.00	15.8	1.17	1.07	1.00	1.25
[NH2][Pt]([Cl])([Cl])([Cl])([Cl])[NH]C1CCCCC1 [Complex 15]	10.8	4.34	11.9	4.77	16.9	1.43	3.55	1.00	15.4	0.72	1.26	1.00	0.91
[NH2][Pt]([OH])([OH])([Cl])([Cl])[NH]C1CCCCC1 [Complex 16]	19.6	8.92	5.52	2.51	6.73	1.22	2.68	1.00	23.9	3.07	1.16	1.00	3.55
[NH2][Pt]([Cl])([Cl])[NH]C1CCC1 [Complex 4]	16	15.8	15.5	15.3	16.1	1.04	1.05	1.00	16.6	0.77	1.34	1.00	1.03
[NH2][Pt]([Cl])([Cl])[NH]C1CCCCCCC1 [Complex 8]	5.97	2.35	7.75	3.05	9.62	1.24	3.15	1.00	7.41	0.61	1.26	1.00	0.77

Source: patent publication US7271161B2, “Platinum complexes as antitumor agents in combination with biochemical modulation” (Board of Regents, the University of Texas System, priority 2002, dated 2007)
